In ChEMBL document CHEMBL3853332, “Pyrazolodiazepine derivatives with agonist activity toward Drosophila RYamide receptor” (Bioorg Med Chem Lett, 2016):
Active and inactive are the calls of the source. The rule behind the calls is not given here. Peptide text beside a SMILES is read from it.

How the values were obtained:
[1] = target: T1, Neuropeptide F receptor (Drosophila melanogaster) (UniProt Q9VNM1); experiment: Agonist activity at Drosophila melanogaster NPFR1 expressed in wild type CHO-K1 cells assessed as increase in calcium level at low nanomolar concentration after 20 secs by luminescence assay; assay type: functional, cell-based
T1 sequence (whole entry): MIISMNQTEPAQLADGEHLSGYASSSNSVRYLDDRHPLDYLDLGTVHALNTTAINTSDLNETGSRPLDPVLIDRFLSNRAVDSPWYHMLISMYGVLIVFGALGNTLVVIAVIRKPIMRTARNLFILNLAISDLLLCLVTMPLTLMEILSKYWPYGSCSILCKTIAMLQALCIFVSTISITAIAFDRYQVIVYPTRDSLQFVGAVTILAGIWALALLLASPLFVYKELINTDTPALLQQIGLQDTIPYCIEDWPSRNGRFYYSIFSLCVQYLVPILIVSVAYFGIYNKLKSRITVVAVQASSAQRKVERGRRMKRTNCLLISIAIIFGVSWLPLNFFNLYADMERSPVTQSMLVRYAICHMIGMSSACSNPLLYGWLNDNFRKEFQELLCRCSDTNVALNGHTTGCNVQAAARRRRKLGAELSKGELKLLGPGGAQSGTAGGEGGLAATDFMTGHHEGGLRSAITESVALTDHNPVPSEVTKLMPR

[2] = target: T2, RYamide receptor (Drosophila melanogaster) (UniProt P25931); experiment: Agonist activity at Drosophila melanogaster RYamide receptor expressed in wild type CHO-K1 cells assessed as increase in calcium level at 0.01 mM after 20 secs by luminescence assay; assay type: cell-based
T2 sequence (whole entry): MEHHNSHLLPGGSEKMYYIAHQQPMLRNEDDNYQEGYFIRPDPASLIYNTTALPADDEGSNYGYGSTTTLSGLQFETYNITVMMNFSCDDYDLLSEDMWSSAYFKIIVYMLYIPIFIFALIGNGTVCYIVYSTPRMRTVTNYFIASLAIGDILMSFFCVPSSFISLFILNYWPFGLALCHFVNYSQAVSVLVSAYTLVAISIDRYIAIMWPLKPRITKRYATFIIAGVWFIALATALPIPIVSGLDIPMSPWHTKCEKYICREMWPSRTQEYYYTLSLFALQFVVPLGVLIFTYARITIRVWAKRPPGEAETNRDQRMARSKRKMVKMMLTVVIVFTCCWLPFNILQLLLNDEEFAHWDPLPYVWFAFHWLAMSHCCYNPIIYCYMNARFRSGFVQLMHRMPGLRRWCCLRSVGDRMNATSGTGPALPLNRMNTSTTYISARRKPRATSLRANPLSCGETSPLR

[3] = target: T2, RYamide receptor (Drosophila melanogaster); experiment: Partial agonist activity at Drosophila melanogaster RYamide receptor expressed in wild type CHO-K1 cells assessed as increase in calcium level at 5 uM after 20 secs by luminescence assay relative to RYamide-1; assay type: cell-based
RYamide receptor = target: T3, RYamide receptor (Drosophila melanogaster, UniProt P25931); experiment: Agonist activity at Drosophila melanogaster RYamide receptor expressed in wild type CHO-K1 cells assessed as increase in calcium level after 20 secs by luminescence assay; assay type: cell-based
T3 sequence (P25931 whole entry): T2 sequence (whole entry)

Row | SMILES | Activity [1] | Activity [2] | Activity [3] [%] | EC50 (RYamide receptor) [µM]
1 | CSCC[C@H](NC(=O)[C@@H](NC(=O)[C@H](CC(N)=O)NC(=O)[C@@H](NC(=O)[C@H](CC(=O)O)NC(=O)[C@H](CC(N)=O)NC(=O)[C@H](CCCCN)NC(=O)[C@H](CCCNC(=N)N)NC(=O)[C@@H]1CCCN1C(=O)[C@@H]1CCCN1C(=O)[C@H](CCCNC(=N)N)NC(=O)[C@H](CO)NC(=O)[C@H](CC(N)=O)NC(=O)[C@@H](N)CO)C(C)C)[C@@H](C)O)C(=O)N[C@@H](C)C(=O)N[C@@H](CC(=O)O)C(=O)N[C@@H](C)C(=O)N[C@@H](Cc1ccc(O)cc1)C(=O)N[C@@H](CCCCN)C(=O)N[C@@H](Cc1ccccc1)C(=O)N[C@@H](CC(C)C)C(=O)N[C@@H](CCC(N)=O)C(=O)N[C@@H](CC(=O)O)C(=O)N[C@@H](CC(C)C)C(=O)N[C@@H](CC(=O)O)C(=O)N[C@H](C(=O)N[C@@H](Cc1ccc(O)cc1)C(=O)N[C@@H](Cc1ccc(O)cc1)C(=O)NCC(=O)N[C@@H](CC(=O)O)C(=O)N[C@@H](CCCNC(=N)N)C(=O)N[C@@H](C)C(=O)N[C@@H](CCCNC(=N)N)C(=O)N[C@H](C(=O)N[C@@H](CCCNC(=N)N)C(=O)N[C@@H](Cc1ccccc1)C(=O)O)C(C)C)[C@@H](C)O (H-SNSRPPRKNDVNTMADAYKFLQDLDTYYGDRARVRF-OH) | Active |  |  | 
2 | Cc1noc(C)c1CN1CC(Cc2ccccc2)NC(=O)c2nn(CCC3CCN(C(=O)OC(C)(C)C)CC3)cc21 (stereo not drawn) |  | Active | 40 | 5.9
3 | CC(C)CN1C[C@H](CCCCN)N=C(SCCC(N)=O)c2nn(CC(C)C)cc21 |  | Active | 40 | 6.1
4 | CC(C)CN1C[C@@H](CCCCN)N=C(SCCC(=O)NN)c2nn(CC(C)C)cc21 |  | Active | 40 | 20.9
5 | CC(C)CN1C[C@H](CCCCN)NC(=S)c2nn(CC(C)C)cc21 |  | Active | 40 | 6.8
